Counter-ions that a name gives are not always drawn. Like-named read-outs stand apart in the source and are kept apart here.
Legend:
sigma receptor = sigma receptor (Cavia porcellus, UniProt Q60492); test: biochemical; conditions: 1 nM (+)-[3H]SKF 10,047, guinea pig brain membranes, pH 7.4, 45 min, room temperature; read-out: SIGMA receptor binding Ki
Description: (§1) Male Hartley guinea pigs (250-300 g, Charles River) were sacrificed by decapitation. […] Whole brains were homogenized (20 seconds) in 10 vol (wt/vol) of ice-cold 0.34 M sucrose with a Brinkmann Polytron (setting 8). The homogenate was centrifuged at 920 × g for 10 minutes. The supernatant was centrifuged at 47,000 × g for 20 minutes. The resulting membrane pellet was resuspended in 10 vol (original wt/vol) of 50 mM Tris HCl (pH 7.4) and incubated at 37° C. for 45 minutes to degrade and dissociate bound endogenous ligands. The membranes were then centrifuged at 47,000 × g for 20 minutes and resuspended in 50 mM Tris HCl (50 mL per brain).
After 45 minutes of incubation at room temperature, samples were filtered rapidly through Whatman GF/C. glass filters under negative pressure, and washed 3 times with ice-cold Tris buffer (5 mL).
IC50 s were calculated from log-logit plots. Apparent Ki s were calculated from the equation, Ki = IC50 /[1+(L/Kd)] (4), where L is the concentration of radio ligand and Kd is its dissociation constant.

dopamine D-2 receptor = biological target: T1, dopamine D-2 receptor (Cavia porcellus, UniProt H0VE83); test: Dopamine Receptor Binding ([3H]spiperone, striatum membranes); parameters: species or system guinea pig
T1 construct: Membranes were prepared from guinea pig striatum; from tissue; host or cells: guinea pig striatum membranes
Description: as §1
Membranes were prepared from guinea pig striatum by the method described for sigma receptor binding. The membranes were then resuspended in 50 mM Tris HCl (9 mL per brain).
Nonspecific binding was measured in the presence of 100 nM (+)-butaclamol.After 15 minutes of incubation at 37° C., samples were filtered rapidly through Whatman GF/C glass filters under negative pressure, and washed three times with ice-cold binding buffer (5 mL).
IC50 s were calculated from log-logit plots.

[1] = Isolation-Induced Aggression in Mice; assay type: in vivo, Male Balb/c mice; conditions: oral; for ED50: Mus musculus, 0.25 h, 15 min after dosing, isolated male Balb/c mice, read-out: Inhibition of Isolation-induced Aggression ED50; for inhibiting isolation-induced aggressive behavior (in words): mice, summary of Table 5
Description: Male Balb/c mice (Charles River) were used. […] Isolated mice failing to consistently attack an intruder were eliminated from the colony. Drug testing was carried out by treating the isolated mice with test drugs or standards. Fifteen minutes after dosing with test drugs by the oral route, one isolated mouse was removed from its home cage and placed in the home cage of another isolate. Scoring was a yes or no response for each pair. A maximum of 3 minutes was allowed for an attack and the pair was separated immediately upon an attack. Selection of home cage and intruder mice was randomized for each test. Mice were treated and tested twice a week with at least a 2 day washout period between treatments.

[2] = 0.15 nM [3H]spiperone, guinea pig striatum membranes, pH 7.7, 15 min, 37° C., read-out: DOPAMINE D-2 receptor binding Ki

Sequence of sigma receptor (Q60492 whole entry): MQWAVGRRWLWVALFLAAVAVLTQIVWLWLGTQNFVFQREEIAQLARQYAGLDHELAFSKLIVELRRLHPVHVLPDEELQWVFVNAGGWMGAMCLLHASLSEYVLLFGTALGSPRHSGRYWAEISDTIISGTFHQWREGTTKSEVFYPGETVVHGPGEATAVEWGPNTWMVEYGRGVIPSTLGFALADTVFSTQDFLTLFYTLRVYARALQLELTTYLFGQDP
T1 sequence (H0VE83 1-446): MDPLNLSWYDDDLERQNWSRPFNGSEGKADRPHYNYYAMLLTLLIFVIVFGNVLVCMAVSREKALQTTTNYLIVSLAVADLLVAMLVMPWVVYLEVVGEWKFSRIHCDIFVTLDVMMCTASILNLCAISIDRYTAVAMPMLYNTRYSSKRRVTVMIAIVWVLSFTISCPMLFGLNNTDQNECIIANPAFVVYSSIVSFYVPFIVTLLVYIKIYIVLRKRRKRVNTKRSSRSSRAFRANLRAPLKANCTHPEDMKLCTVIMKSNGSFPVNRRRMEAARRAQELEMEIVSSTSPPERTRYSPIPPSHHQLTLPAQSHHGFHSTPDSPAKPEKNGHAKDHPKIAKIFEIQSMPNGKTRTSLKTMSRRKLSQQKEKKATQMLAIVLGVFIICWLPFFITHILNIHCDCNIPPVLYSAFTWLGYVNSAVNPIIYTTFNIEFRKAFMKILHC

Row | Ki (sigma receptor) [nM] | Ki (dopamine D-2 receptor; [2]) [nM] | Compound | ED50 [1] [mg/kg] | inhibiting isolation-induced aggressive behavior (in words) [1] | Ki (dopamine D-2 receptor) [nM]
1 | 1 to 30 | 101 to 500 | C(=C\c1ccccc1)/COCC1CCN(CCc2ccccc2)CC1 [Example 25, (E)-1-phenethyl-4-[(3-phenyl-2-propenyloxy)methyl] piperidine, hydrochloride salt] | 21 to 70 | effective | 
2 | 1 to 30 | > 500 | CCCCCCN1CCC(COC/C=C/c2ccccc2)CC1 [Example 36] |  |  | 
3 | 1 to 30 | > 500 | C(=C\c1ccccc1)/COCC1CCN(Cc2ccccc2)CC1.Cl [Example 21, (E)-1-Benzyl-4-[(3-phenyl-2-propenyloxy)methyl]piperidine hydrochloride] | 21 to 70 | effective | 
4 | 1 to 30 | > 500 | C(=C\c1ccccc1)/COCC1CCN(CC2CC2)CC1 [Example 23] |  |  | 
5 | 1 to 30 | > 500 | C(=C\c1ccccc1)/COCCC1CCN(Cc2ccccc2)CC1 [Example 41, (E)-1Benzyl-4-[(3-phenyl-2-propenyloxy)lethyl]piperidine, maleic acid salt] |  |  | 
6 | 1 to 30 | > 500 | C(=C\c1ccccc1)/COCCC1CCCCN1Cc1ccccc1 (centres unmarked) [Example 24] |  |  | 
7 | 1 to 30 | 101 to 500 | C(#Cc1ccccc1)COCCC1CCN(CCc2ccccc2)CC1 [Example 39, 1-Phenethyl-4-(3-phenyl-2-propynyloxy)ethyl] piperidine, hydrochloride salt] |  |  | 
8 | 1 to 30 | > 500 | C(=C\c1ccccc1)/COC[C@@H]1CCCN1Cc1ccccc1 [Example 38] |  |  | 
9 | 1 to 30 | > 500 | C(=C\c1ccccc1)/COC1CCN(Cc2ccccc2)C1 (centres unmarked) [Example 32] |  |  | 
10 | 31 to 100 | > 500 | C(=C/c1ccccc1)/COCCC1CCN(Cc2ccccc2)CC1 [Example 42, (Z)-1-Benzyl-4[(3-phenyl-2-propenyloxy)ethyl]piperidine] |  |  | 
11 | 1 to 30 | > 500 | C(=C\c1ccccc1)/COC1CCN(Cc2ccccc2)CC1 [Example 31] |  |  | 
12 | 1 to 30 | > 500 | C(=C\c1ccccc1)/COCC1CCCCN1Cc1ccccc1 (centres unmarked) [Example 28] |  |  | 
13 | 1 to 30 | > 500 | CC(C)=CCN1CCC(COC/C=C/c2ccccc2)CC1 [Example 29] |  |  | 
14 | 1 to 30 | > 500 | FC(F)(F)c1ccc(/C=C/COCC2CCN(Cc3ccccc3)CC2)cc1 [Example 35, (E)-1-benzyl-4-{[3-(4-trifluoromethyl)phenyl-2-propenyloxy]methyl}piperidine, maleic acid salt] |  |  | 
15 | 1 to 30 | > 500 | C(=C\c1ccccc1)/COCC1CCN(Cc2ccc3ccccc3c2)CC1 [Example 26] |  |  | 
16 | 1 to 30 | > 500 | C(=C\c1ccccc1)/COCC1CCCN(Cc2ccccc2)C1 (centres unmarked) [Example 27] |  |  | 
17 |  |  | O=C(CCCN1CCC(O)(c2ccc(Cl)cc2)CC1)c1ccc(F)cc1 [Haloperidol, reference compound] | < 10 | effective | 
18 | 1 to 30 | > 500 | Fc1ccc(/C=C/COCC2CCN(Cc3ccccc3)CC2)cc1 [Example 22, (E)-1-benzyl-4-{[3-(4-fluoro)phenyl-2-propenyloxy]methyl} piperidine, hydrochloride salt] |  |  | 
19 | 1 to 30 | > 500 | C(=C\c1ccccc1)/COCC1CCN(CCCc2ccccc2)CC1 [Example 30, (E)-1-(3-phenyl)propyl-4-[(3-phenyl-2-propenyloxy)methyl]piperidine, hydrochloride salt] |  |  | 
20 | 1 to 30 | > 500 | C(#Cc1ccccc1)COCCC1CCN(Cc2ccccc2)CC1 [Example 40] |  |  | 
21 | 1 to 30 | > 500 | C(=C\c1ccccc1)/COC[C@H]1CCCN1Cc1ccccc1 [Example 37] |  |  | 
22 | 31 to 100 | > 500 | C(=C\c1ccccc1)/COCC1CCN(Cc2cccc3ccccc23)CC1 [Example 33] |  |  | 

Row | Compound | Ki (sigma receptor) [nM] | Ki (dopamine D-2 receptor; [2]) [nM] | ED50 [1] [mg/kg] | inhibiting isolation-induced aggressive behavior (in words) [1] | Ki (dopamine D-2 receptor) [nM]
23 | C(COCC1CCN(Cc2ccccc2)CC1)=C(c1ccccc1)c1ccccc1 [Example 34] | 1 to 30 |  |  |  | > 500
